From the supplement of paper PMC11208160 come the findings set out here.

This series in a line: recombinant UMI read abundance after kanamycin selection (control-corrected) (log10(CPM+1)); higher = more efficient recombination; extreme values may be limits of the assay; sequences stand for … in AGTGCAGAGAAAATCGGCCAGTTTTCTCTGCCTGCAGTCCGCATGCCGTGGGACCCCTTGGGTTCTAACCTGTTGCCTAGATTTATGCAGCGGACTGCCTTTCTCCCAAAGTGATAAACCGG…AGGTTGGTTTCACT; site = the 11-nt donor. The method, boiled down: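 Sequenced counts of recombinant UMIs were turned into CPM, averaged across replicates and scaled with control-derived factors. The reported figure is log10(CPM+1). Those UMIs, each 12 nt long, tagged donor and donor-binding-loop pairs on a plasmid with a promoterless kanamycin gene, screened as a pool in Escherichia coli with IPTG (0.07 mM) plus kanamycin or without selection.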
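Note: IS621 bridge recombinase in Escherichia coli cells against a fixed T5 target plasmid.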

For the sequence “AGGGCAACATGGACCGGTTTTCCCGGTAATCCGTATTTGTT (site AGGGCAACTAA)”, the “recombinant UMI read abundance (log10)” value turned out to be 0.85. Take “AGGGGTTCATGGACCGGTTTTCCCGGTAATCCGTATTTGTC (site AGGGGTTCTGA)”: the “recombinant UMI read abundance (log10)” value worked out at 3.19.

With “AGGGTACCATGGACCGGTTTTCCCGGTAATCCGTATTTGTA (site AGGGTACCTTA)”, the “recombinant UMI read abundance (log10)” value was 0.0065. With “AGGGTTACATGGACCGGTTTTCCCGGTAATCCGTATTTGGG (site AGGGTTACTCC)” the figure was 0.175. As to “AGGTACGCATGGACCGGTTTTCCCGGTAATCCGTATTTGCC (site AGGTACGCTGG)”, the “recombinant UMI read abundance (log10)” value was found to be 2.36. Next, “AGGTCGGCATGGACCGGTTTTCCCGGTAATCCGTATTTGTA (site AGGTCGGCTTA)”: 1.01; “AGGTTACCATGGACCGGTTTTCCCGGTAATCCGTATTTGTG (site AGGTTACCTCA)”: 0.0116; “AGGTTACCATGGACCGGTTTTCCCGGTAATCCGTATTTGTG (site AGGTTCCCTCA)”: 0. Next, “AGGTTACCATGGACCGGTTTTCCCGGTAATCCGTATTTGTG (site AGGTTGCCTCA)”: 0.00949; “AGGTTACCATGGACCGGTTTTCCCGGTAATCCGTATTTGTG (site AGGTTTCCTCA)”: 0.00461. With “AGGTTCCCATGGACCGGTTTTCCCGGTAATCCGTATTTGTT (site AGGTTCCCTAA)” the figure was 0. On to “AGGTTCCCATGGACCGGTTTTCCCGGTAATCCGTATTTGTT (site AGGTTCCCTCA)”, for which the “recombinant UMI read abundance (log10)” value stood at 0.0252. Next, “AGGTTCCCATGGACCGGTTTTCCCGGTAATCCGTATTTGTT (site AGGTTCCCTGA)”: 0; “AGGTTCCCATGGACCGGTTTTCCCGGTAATCCGTATTTGTT (site AGGTTCCCTTA)”: 0. Next, “AGGTTCGCATGGACCGGTTTTCCCGGTAATCCGTATTTGTG (site AGGTTCACTCA)”: 0.217. In the case of “AGGTTCGCATGGACCGGTTTTCCCGGTAATCCGTATTTGTG (site AGGTTCCCTCA)”, the “recombinant UMI read abundance (log10)” value was determined as 0.015. Next, “AGGTTCGCATGGACCGGTTTTCCCGGTAATCCGTATTTGTG (site AGGTTCGCTCA)”: 0.666; “AGGTTCGCATGGACCGGTTTTCCCGGTAATCCGTATTTGTG (site AGGTTCTCTCA)”: 0. With “AGGTTGACATGGACCGGTTTTCCCGGTAATCCGTATTTGCG (site AGGTTGACTCG)” the figure was 2; with “AGTAAATCATGGACCGGTTTTCCCGGTAATCCGTATTTGGG (site GCCGTTCCTGA)”, 0; with “AGTAACACATGGACCGGTTTTCCCGGTAATCCGTATTTGCA (site AGGAAGACTTG)”, 0. Next, “AGTAACACATGGACCGGTTTTCCCGGTAATCCGTATTTGCA (site AGTAACACTTG)”: 2.13; “AGTAACGCATGGACCGGTTTTCCCGGTAATCCGTATTTGCA (site AGTAACGCTTG)”: 2.29; “AGTACCACATGGACCGGTTTTCCCGGTAATCCGTATTTGTT (site AGTACCACTAA)”: 0.274. Take “AGTACGTCATGGACCGGTTTTCCCGGTAATCCGTATTTGTT (site AGTACGTCTAA)”: the “recombinant UMI read abundance (log10)” value amounted to 0.258. For “AGTACGTCATGGACCGGTTTTCCCGGTAATCCGTATTTGTT (site CGTACGTCTAA)”, the “recombinant UMI read abundance (log10)” value is 0.552. With “AGTACGTCATGGACCGGTTTTCCCGGTAATCCGTATTTGTT (site GGTACGTCTAA)” the figure was 0.198; with “AGTACGTCATGGACCGGTTTTCCCGGTAATCCGTATTTGTT (site TGTACGTCTAA)”, 0.212; with “AGTCCCACATGGACCGGTTTTCCCGGTAATCCGTATTTGAA (site AGTCCCACTTT)”, 0.752.

For the sequence “AGTCCGCCATGGACCGGTTTTCCCGGTAATCCGTATTTGGG (site AGTCCGCCTCC)”, the “recombinant UMI read abundance (log10)” value amounted to 0.015. With “AGTCGAGCATGGACCGGTTTTCCCGGTAATCCGTATTTGAG (site AGTCGAGCTCT)” the figure was 1.6; with “AGTCTTACATGGACCGGTTTTCCCGGTAATCCGTATTTGCG (site AGTCTTACTCG)”, 1.32. With “AGTGAATCATGGACCGGTTTTCCCGGTAATCCGTATTTGAG (site AGTGAATCTCT)” the figure was 2.17.

Regarding “AGTGCTGCATGGACCGGTTTTCCCGGTAATCCGTATTTGCA (site AGTGCTGCTTG)”, the “recombinant UMI read abundance (log10)” value amounted to 1.21. Next, “AGTGGAACATGGACCGGTTTTCCCGGTAATCCGTATTTGTT (site AGTGGAACTAA)”: 1.56; “AGTGGAACATGGACCGGTTTTCCCGGTAATCCGTATTTGTT (site CGTGGAACTAA)”: 0.295.

For “AGTGGAACATGGACCGGTTTTCCCGGTAATCCGTATTTGTT (site GGTGGAACTAA)”, the “recombinant UMI read abundance (log10)” value was 0.00617.

In the case of “AGTGGAACATGGACCGGTTTTCCCGGTAATCCGTATTTGTT (site TGTGGAACTAA)”, the “recombinant UMI read abundance (log10)” value stood at 0.00958.

Take “AGTGGGTCATGGACCGGTTTTCCCGGTAATCCGTATTTGCA (site AGTGGGTCTTG)”: the “recombinant UMI read abundance (log10)” value amounted to 2.92. Turning to “AGTGTATCATGGACCGGTTTTCCCGGTAATCCGTATTTGCA (site ACAGTATCTTG)”, the “recombinant UMI read abundance (log10)” value is 1.69.

For the sequence “AGTGTATCATGGACCGGTTTTCCCGGTAATCCGTATTTGCA (site AGTGTATCTTG)”, the “recombinant UMI read abundance (log10)” value was found to be 2.25. Next, “AGTGTCACATGGACCGGTTTTCCCGGTAATCCGTATTTGGC (site AGTGTCACTGC)”: 2.62; “AGTGTCTCATGGACCGGTTTTCCCGGTAATCCGTATTTGCA (site AGTGTCTCTTG)”: 3.07.

Turning to “AGTTAGACATGGACCGGTTTTCCCGGTAATCCGTATTTGAG (site AGTTAGACTCT)”, the “recombinant UMI read abundance (log10)” value was determined as 1.23.

As for “AGTTAGACATGGACCGGTTTTCCCGGTAATCCGTATTTGAG (site CGTTAGACTCT)”, the “recombinant UMI read abundance (log10)” value came to 1.06. Next, “AGTTAGACATGGACCGGTTTTCCCGGTAATCCGTATTTGAG (site GGTTAGACTCT)”: 0.353; “AGTTAGACATGGACCGGTTTTCCCGGTAATCCGTATTTGAG (site TGTTAGACTCT)”: 0.674. With “AGTTATTCATGGACCGGTTTTCCCGGTAATCCGTATTTGCA (site AGTTATTCTTG)” the figure was 2.11; with “AGTTCAGCATGGACCGGTTTTCCCGGTAATCCGTATTTGGG (site AGATCAGCTCC)”, 0.0116. With “AGTTCAGCATGGACCGGTTTTCCCGGTAATCCGTATTTGGG (site AGCTCAGCTCC)” the figure was 0.0322; with “AGTTCAGCATGGACCGGTTTTCCCGGTAATCCGTATTTGGG (site AGGTCAGCTCC)”, 0.0161; with “AGTTCAGCATGGACCGGTTTTCCCGGTAATCCGTATTTGGG (site AGTTCAGCTCC)”, 0.017. Take “AGTTCTGCATGGACCGGTTTTCCCGGTAATCCGTATTTGTT (site AGTTCTGCTAA)”: the “recombinant UMI read abundance (log10)” value worked out at 0.0478. Next, “AGTTGATCATGGACCGGTTTTCCCGGTAATCCGTATTTGTC (site AGTTGATCTGA)”: 1.94; “ATAAAATCATGGACCGGTTTTCCCGGTAATCCGTATTTGCC (site ATAAAATCTGG)”: 1.66. Turning to “ATAAAGCCATGGACCGGTTTTCCCGGTAATCCGTATTTGAC (site ATAAAGCCTGT)”, the “recombinant UMI read abundance (log10)” value worked out at 0. Take “ATAAAGCCATGGACCGGTTTTCCCGGTAATCCGTATTTGAC (site ATAACGCCTGT)”: the “recombinant UMI read abundance (log10)” value was determined as 0. With “ATAAAGCCATGGACCGGTTTTCCCGGTAATCCGTATTTGAC (site ATAAGGCCTGT)” the figure was 0. Next, “ATAAAGCCATGGACCGGTTTTCCCGGTAATCCGTATTTGAC (site ATAATGCCTGT)”: 0. With “ATAACAACATGGACCGGTTTTCCCGGTAATCCGTATTTGAA (site ATAACAACTTT)”, the “recombinant UMI read abundance (log10)” value is 1.46. With “ATAACAGCATGGACCGGTTTTCCCGGTAATCCGTATTTGTT (site ATAACAGCTAA)” the figure was 1.92; with “ATAACGCCATGGACCGGTTTTCCCGGTAATCCGTATTTGAC (site ATAAAGCCTGT)”, 0; with “ATAACGCCATGGACCGGTTTTCCCGGTAATCCGTATTTGAC (site ATAACGCCTGT)”, 0.696.

In the case of “ATAACGCCATGGACCGGTTTTCCCGGTAATCCGTATTTGAC (site ATAAGGCCTGT)”, the “recombinant UMI read abundance (log10)” value is 0. Next, “ATAACGCCATGGACCGGTTTTCCCGGTAATCCGTATTTGAC (site ATAATGCCTGT)”: 0; “ATAAGACCATGGACCGGTTTTCCCGGTAATCCGTATTTGAC (site ATAAGACCTGT)”: 0.

Take “ATAAGACCATGGACCGGTTTTCCCGGTAATCCGTATTTGAC (site ATAAGCCCTGT)”: the “recombinant UMI read abundance (log10)” value was found to be 0. With “ATAAGACCATGGACCGGTTTTCCCGGTAATCCGTATTTGAC (site ATAAGGCCTGT)” the figure was 0.
